Common to all, as to experiment: growth of human tumour cells (NCI), 48 h
For assay [1], the system named is 786-0 renal.
Assay [2] concerns COLO 205 colon.
Assay [3] has as its system MOLT-4 leukemia.
Assay [4] has as its system NCI-H23 lung.
In assay [5] the test system is OVCAR-4 ovarian.
For assay [6], the system named is SK-MEL-5 melanoma.
Assay [7] deals with SNB-75 CNS.
For assay [8], the system named is SW-620 colon.
In assay [9] the test system is TK-10 renal.

Drawing on PubChem BioAssay (NCI), this text covers TGI for 30 compounds.

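All cell lines were grown in 96-well plates and treated with compound for 48 hours. The concentration for full growth arrest is given as TGI.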

Regarding `CC(C)S1=C2C(=O)CC(C)(C)CC2=Nc2ccccc21` (stereo not given), the TGI in assay [1], in assay [2], in assay [3], in assay [4], in assay [5] and in assay [6] was more than 100 µM each time. In addition, the TGI in assay [7], in [8] and in assay [9] was more than 100 µM in each case.

`CN1Cc2c(ccc3c2OCO3)[C@@H]2[C@H](O)Cc3cc4c(cc3[C@@H]21)OCO4`: the TGI was more than 75 µM in [1]; 4.55 µM in [2]; more than 57.1 µM in [3]; 12.8 µM in [4]; more than 100 µM in [5]; 40 µM in assay [6]. Further, the TGI in assay [7] was 7.64 µM; in [8], more than 100 µM; in [9], more than 100 µM.

`Clc1cc2ncn(C3CCCO3)c2cc1Cl` (stereo not given): the TGI in assay [1], in assay [2], in assay [3], in assay [4], in assay [5] and in [6] was more than 100 µM throughout. Moreover, the TGI in assay [7], in assay [8] and in assay [9] was more than 100 µM each time.

`C(/Cc1ccc2c(c1)OCO2)=N\NC1=NCCCCN1`: the TGI in assay [1] is more than 100 µM; in assay [2] it was more than 100 µM; in assay [3], more than 100 µM; in [4], more than 100 µM; in [5] it was more than 100 µM; in [6], 58.2 µM. The TGI in assay [7], in [8] and in [9] was more than 100 µM in each case.

With `CCOC(=O)N/N=C(/N)Cc1ccc(Cl)cc1`, the TGI in assay [1], in assay [2], in assay [3], in assay [4], in [5] and in [6] was more than 100 µM in each case. The TGI in assay [7], in assay [8] and in [9] was more than 100 µM throughout.

Turning to `CCOC(=O)c1sc2nc(SC)nc3c2c1NCN3c1ccccc1Cl`, the TGI in assay [1], in assay [2], in [3], in [4], in [5] and in [6] was more than 100 µM each time. The TGI was 64.9 µM in assay [7], more than 100 µM in assay [8] and more than 100 µM in [9].

For the compound `CCOC(=O)c1c(SCCN(CC)CC)n(-c2ccccc2)c(=S)n(-c2ccccc2)c1=O`, the TGI is 3.17 µM in [1]; 6.2 µM in assay [2]; 3.33 µM in [3]; 44.6 µM in assay [4]; 25.5 µM in assay [5]; 7.6 µM in assay [6]. Also, the TGI is 23.4 µM in assay [7], more than 24.2 µM in [8] and 3.39 µM in assay [9].

Regarding `CCc1n[nH]c(=O)n1-c1ccncc1`, the TGI in assay [1], in assay [2], in [3], in assay [4], in [5] and in assay [6] was more than 100 µM throughout. The TGI in assay [7], in assay [8] and in [9] was more than 100 µM throughout.

In the case of `Nc1nc(Nc2cc(F)c(Cl)c(F)c2)cc(=O)[nH]1`, the TGI in assay [1], in assay [2], in [3], in [4], in assay [5] and in [6] was more than 100 µM in each case. Further, the TGI in [7] is 97.9 µM; in assay [8], more than 100 µM; in [9], more than 100 µM.

On to `N/N=C(\N)SCc1ccc(N=C=S)cc1`, for which the TGI in assay [1], in assay [2], in assay [3], in assay [4], in assay [5] and in [6] was more than 100 µM throughout. The TGI in [7], in [8] and in [9] was more than 100 µM in each case.

Consider `Nc1c(/C=C/c2cc3cc(C4=NCCN4)ccc3o2)[nH]c2cc(C3=NCCN3)ccc12`, for which the TGI in assay [1], in assay [2], in assay [3], in assay [4], in [5] and in [6] was more than 100 µM each time. In addition, the TGI was more than 100 µM in assay [7], more than 100 µM in assay [8] and 67 µM in [9].

Take `O=C1Cc2c(-c3ccccc3)cc(-c3ccc(Cl)cc3)nc2-c2ccccc2N1`: the TGI in assay [1] is 3.51 µM; in [2], 18 µM; in assay [3] it was more than 84.8 µM; in assay [4] it was 17.8 µM; in assay [5] it was 3.82 µM; in assay [6], 17 µM. Further, the TGI in [7] was 8.77 µM; in assay [8], more than 47.6 µM; in assay [9] it was 14.3 µM.

In the case of `COc1ccc2c(C=O)c3n(c(=O)c2c1OC)CCc1cc2c(cc1-3)OCO2`, the TGI in assay [1] was more than 100 µM; in assay [2], 82 µM; in assay [3], more than 100 µM; in assay [4], more than 100 µM; in assay [5], more than 100 µM; in assay [6] it was more than 100 µM. For the same compound, the TGI in assay [7], in [8] and in [9] was more than 100 µM in each case.

For the compound `CC(=O)OC/C=C/Cn1nc(Br)c(=O)[nH]c1=O`, the TGI in [1], in [2], in assay [3], in [4], in [5] and in [6] was more than 100 µM each time. Further, the TGI in assay [7], in assay [8] and in assay [9] was more than 100 µM in each case.

Turning to `O=C(CCc1ccccc1)NCCc1ccc(O)c(O)c1`, the TGI is more than 82.2 µM in assay [1]; 58.5 µM in assay [2]; more than 89.4 µM in [3]; more than 100 µM in assay [4]; 46.7 µM in assay [5]; more than 50.6 µM in [6]. Also, the TGI in assay [7], in assay [8] and in assay [9] was more than 100 µM in each case.

Take `CC(=O)OC1C(C)OC(OC2C[C@](O)(C(C)=O)Cc3c(O)c4c(c(O)c32)C(=O)c2ccccc2C4=O)C(F)C1OC(C)=O` (stereo not given in full): the TGI was 2.36 µM in assay [1]; more than 100 µM in [2]; 0.112 µM in assay [3]; 1.81 µM in assay [4]; 41.8 µM in assay [5]; 2.18 µM in assay [6]. Besides, the TGI in assay [7] was 4.33 µM; in [8] it was more than 100 µM; in [9], 4.29 µM.

As for `COc1cc(CC2C(=O)OCC2Cc2ccc(OC)c(OC)c2)ccc1O` (stereo not given), the TGI was more than 100 µM in assay [1]; more than 100 µM in assay [2]; more than 31.7 µM in assay [3]; more than 100 µM in [4]; more than 100 µM in assay [5]; more than 100 µM in assay [6]. The TGI in [7], in assay [8] and in assay [9] was more than 100 µM throughout.

For the compound `N#Cc1c2c(c(Nc3ccc(Cl)cc3)n3c1nc1ccccc13)CCCC2`, the TGI in assay [1] is more than 100 µM; in assay [2], more than 100 µM; in [3] it was more than 100 µM; in [4], more than 100 µM; in assay [5], more than 96.6 µM; in [6], more than 100 µM. Besides, the TGI in [7], in [8] and in assay [9] was more than 100 µM each time.

On to `COc1ccc(-c2cc(=O)c3cc(OC)c(OC)cc3[nH]2)cc1OC`, for which the TGI in assay [1], in assay [2], in [3], in [4], in [5] and in [6] was more than 100 µM throughout. Besides, the TGI in [7], in [8] and in assay [9] was more than 100 µM each time.

Turning to `O=C(c1ccccc1)n1c2ccc(Br)cc2c2nc3ccccc3nc21`, the TGI in assay [1], in [2], in assay [3], in assay [4], in assay [5] and in assay [6] was more than 100 µM each time. For the same compound, the TGI in [7], in [8] and in [9] was more than 100 µM throughout.

`CCc1nc2cc(F)ccc2[nH]c1=O`: the TGI in assay [1], in assay [2], in assay [3], in assay [4], in [5] and in assay [6] was more than 100 µM throughout. The TGI in [7], in [8] and in assay [9] was more than 100 µM each time.

As to `CCCCC(C)(C/C=C/[C@@H]1[C@@H](C(O)CCCCCC(=O)OC)C(=O)C[C@H]1O[Si](C)(C)C(C)(C)C)O[Si](C)(C)C` (stereo not given in full), the TGI in [1] is more than 100 µM; in assay [2], more than 100 µM; in assay [3], 59.4 µM; in assay [4], more than 100 µM; in [5] it was more than 100 µM; in [6], more than 100 µM. The TGI in [7], in assay [8] and in [9] was more than 100 µM throughout.

For the compound `N=c1sc(N2CCOCC2)nn1CC(=O)c1ccccc1`, the TGI in [1], in assay [2], in assay [3], in assay [4], in [5] and in assay [6] was more than 100 µM each time. The TGI in assay [7], in assay [8] and in assay [9] was more than 100 µM throughout.

As to `CC(=O)Oc1c(OC(C)C)cc(=O)n2ccsc12`, the TGI in [1], in [2], in assay [3], in assay [4], in [5] and in [6] was more than 100 µM in each case. Moreover, the TGI in assay [7], in assay [8] and in assay [9] was more than 100 µM in each case.

Consider `CC(C)=C[C@@H]1C[C@H](C)[C@H]2CC[C@H](C)[C@H]3C(=O)C(O)=C(C)C(=O)[C@]123`, for which the TGI in assay [1], in assay [2], in assay [3], in [4], in assay [5] and in assay [6] was more than 100 µM throughout. The TGI in assay [7], in [8] and in assay [9] was more than 100 µM in each case.

Take `Cn1c(=O)c2c(n(C)c1=O)n1c(=O)c3ccccc3nc1n2C`: the TGI in assay [1], in assay [2], in assay [3], in assay [4], in assay [5] and in assay [6] was more than 100 µM each time. Further, the TGI in [7], in assay [8] and in assay [9] was more than 100 µM each time.

For `CO/C(N)=C(\C#N)N=Cc1cccs1`, the TGI in [1], in [2], in assay [3], in [4], in assay [5] and in assay [6] was more than 100 µM throughout. Also, the TGI in [7], in [8] and in assay [9] was more than 100 µM throughout.

Take `FC(F)(Sc1nc2ccccc2[nH]1)c1nc2ccccc2o1`: the TGI in assay [1], in assay [2], in assay [3], in assay [4], in assay [5] and in [6] was more than 100 µM throughout. In addition, the TGI in assay [7], in [8] and in assay [9] was more than 100 µM each time.

On to `COc1ccc(-c2cc(-c3ccc(Nc4ccnc5cc(C(F)(F)F)ccc45)cc3)nc(N)c2C#N)c2ccccc12`, for which the TGI in assay [1], in assay [2], in assay [3], in assay [4], in assay [5] and in assay [6] was more than 100 µM each time. The TGI in assay [7], in [8] and in assay [9] was more than 100 µM in each case.

`Oc1[nH]c2ccccc2c1N=Nc1nc(-c2ccccc2)cs1`: the TGI in assay [1], in [2], in assay [3], in [4], in assay [5] and in assay [6] was more than 100 µM each time. Further, the TGI in assay [7] was 41.3 µM; in assay [8], more than 100 µM; in assay [9], more than 100 µM.
